The first assay has as its system platelet aggregation. Kind of assay: Platelet aggregation inhibitory activity (ADP-induced, human platelet rich plasma). In kind it is cell-based. As to conditions: Homo sapiens, Table 2, same manner as Example 17. How it is done:
The blood was collected from the elbow vein of a normal volunteer with mixing thereof with 1/10 volume of 3.8% sodium citrate, and the blood was centrifuged at 1000 rpm (150 g) for 10 minutes to give the supernatant as platelet rich plasma (PRP). To PRP (200 μl) was added a test compound solution (2 μl), and the mixture was incubated with stirring at 1000 rpm at 37° C. for two minutes, and thereto was added a platelet aggregator, adenosine diphosphate (ADP, 22 μl) at a final concentration of 3 μg/ml. The platelet aggregation activity was determined by nephelometric analysis using a Hematracer (manufactured by Niko Bioscience, Ltd.). The test results of platelet aggregation inhibitory activity are expressed by IC50, which is a concentration of the test compound being required to inhibit the platelet aggregation reaction by 50%.
The compounds of Examples 18 to 70 were tested in the same manner as in Example 17.
The compounds of Examples 72 to 116 were tested in the same manner as in Example 17.
What is called IC50 is the point on the concentration scale where inhibition reaches its midpoint. Read a high IC50 as lower potency. With `CN(C)c1cccc2c(S(=O)(=O)N[C@@H](CNC(=O)CCNC(=O)CCC3CCNCC3)C(=O)O)cccc12` [Example 42, (2S)-2-(5-dimethylamino-1-naphthalene)sulfonylamino-3-(3-(3-(4-piperidyl)propanoylamino)propanoylamino)propanoic Acid], the IC50 amounted to 233 nM. Same read-out and setting: the figure for `O=C(CCC1CCNCC1)NCCC(=O)NC[C@H](NS(=O)(=O)c1ccc2ccccc2c1)C(=O)O` [Example 43, (2S)-2-(2-naphthalene)sulfonylamino-3-(3-(3-(4-piperidyl)propanoylamino)propanoylamino)propanoic Acid] is 260 nM; for `CCS(=O)(=O)N[C@@H](CNC(=O)CCNC(=O)CCC1CCNCC1)C(=O)O` [Example 44, (2S)-2-ethanesulfonylamino-3-(3-(3-(4-piperidyl)propanoylamino)propanoylamino)propanoic Acid] it is 263 nM; for `CCCS(=O)(=O)N[C@@H](CNC(=O)CCNC(=O)CCC1CCNCC1)C(=O)O` [Example 45, (2S)-3-(3-(3-(4-piperidyl)propanoylamino)propanoylamino)-2-propanesulfonylaminopropanoic Acid] it is 121 nM. On to `COc1cc(C)c(S(=O)(=O)N[C@@H](CNC(=O)CCNC(=O)CCC2CCNCC2)C(=O)O)c(C)c1C` [Example 46, (2S)-2-(4-methoxy-2,3,6-trimethyl)benzenesulfonylamino-3-(3-(3-(4-piperidyl)propanoylamino)propanoylamino)propanoic Acid], for which the IC50 is 32 nM. As to `O=C(CCC1CCNCC1)NCCC(=O)NC[C@H](NS(=O)(=O)c1ccc(OC(F)(F)F)cc1)C(=O)O` [Example 47, (2S)-3-(3-(3-(4-piperidyl)propanoylamino)propanoylamino)-2-(4-trifluoromethoxy)benzenesulfonylaminopropanoic Acid], it took 238 nM to reach half-maximal inhibition (IC50). With `CCCCOc1ccc(S(=O)(=O)N[C@@H](CNC(=O)CCNC(=O)CCC2CCNCC2)C(=O)O)cc1` [Example 48, (2S)-2-(4-butoxy)benzenesulfonylamino-3-(3-(3-(4-piperidyl)propanoylamino)propanoylamino)propanoic Acid], half-maximal inhibition (IC50) was put at 67 nM.

As to `CCCc1ccc(S(=O)(=O)N[C@@H](CNC(=O)CCNC(=O)CCC2CCNCC2)C(=O)O)cc1` [Example 49, (2S)-3-(3-(3-(4-piperidyl)propanoylamino)propanoylamino)-2-(4-propyl)benzenesulfonylaminopropanoic Acid], the IC50 was found to be 170 nM. For the molecule `CC(C)c1ccc(S(=O)(=O)N[C@@H](CNC(=O)CCNC(=O)CCC2CCNCC2)C(=O)O)cc1` [Example 50, (2S)-2-(4-isopropyl)benzenesulfonylamino-3-(3-(3-(4-piperidyl)propanoylamino)propanoylamino)propanoic Acid], half-maximal inhibition (IC50) was put at 203 nM. `O=C(CCCC1CCNCC1)NCCC(=O)NC[C@H](NS(=O)(=O)c1ccccc1)C(=O)O` [Example 53, (2S)-2-benzenesulfonylamino-3-(3-(4-(4-piperidyl)butanoylamino)propanoylamino)propanoic Acid] showed an IC50 of 111 nM. `O=C(CCCC(=O)NC[C@H](NS(=O)(=O)c1ccccc1)C(=O)O)NCC1CCNCC1` [Example 54, (2S)-2-benzenesulfonylamino-3-(4-(4-piperidylmethylcarbamoyl)butanoylamino)propanoic Acid] came in with an IC50 of 79 nM. This IC50 and that of the molecule before are within 1.5-fold of each other. `O=C(CCNC(=O)COC1CCNCC1)NC[C@H](NS(=O)(=O)c1ccccc1)C(=O)O` [Example 55, (2S)-2-benzenesulfonylamino-3-(3-(2-(4-piperidyloxy)ethanoylamino)propanoylamino)propanoic Acid] displayed an IC50 of 300 nM.

With `CCCCS(=O)(=O)N[C@@H](CNC(=O)CCCOc1ccc(C(=N)N)cc1)C(=O)O` [Example 56, (2S)-3-(4-(4-amidinophenoxy)butanoylamino)-2-butanesulfonylaminopropanoic Acid], the midpoint of inhibition, the IC50, lay at 90 nM. Consider `CCCCS(=O)(=O)N[C@@H](CNC(=O)CCCCOc1ccc(C(=N)N)cc1)C(=O)O` [Example 65, (2S)-3-(5-(4-amidinophenoxy)pentanoylamino)-2-butanesulfonylaminopropanoicAcid], for which 79 nM corresponded to half-maximal inhibition (IC50). This IC50 and that of the molecule before are within 1.5-fold of each other.

The molecule `COc1ccc(S(=O)(=O)N[C@@H](CNC(=O)CCCCc2ccc(C(=N)N)cc2)C(=O)O)cc1` [Example 66, (2S)-3-(5-(4-amidinophenyl)pentanoylamino)-2-(4-methoxy)benzenesulfonylaminopropanoic Acid] registered an IC50 of 16 nM. Still for that read-out and setting: the figure for `COc1ccc(S(=O)(=O)N[C@@H](CNC(=O)C2CCCN(C(=O)CCC3CCNCC3)C2)C(=O)O)cc1` (stereo partly drawn) [Example 70, (2S)-2-(4-methoxy)benzenesulfonylamino-3-(1-(3-(4-piperidyl)propanoyl)-3-piperidylcarbonylamino)propanoic Acid] is 57 nM.

Staying with this assay, now noted: Homo sapiens, Table 3, same manner as Example 17.
With `COc1cccc2c(S(=O)(=O)N[C@@H](CNC(=O)CCNC(=O)CCC3CCNCC3)C(=O)O)cccc12` [Example 72, (2S)-2-(5-methoxy-1-naphthalene)sulfonylamino-3-(3-(3-(4-piperidyl)propanoylamino)propanoylamino)propanoic Acid], the IC50 is 52 nM. Same read-out and setting: the figure for `N=C(N)c1ccc(C(=O)NCCC(=O)NC[C@@H](NS(=O)(=O)c2ccccc2)C(=O)O)cc1` [Example 73, (2R)-3-(3-(4-amidinobenzoylamino)propanoylamino)-2-benzenesulfonylaminopropanoic Acid] is 162 nM; for `N=C(N)c1ccc(C(=O)NCCC(=O)NC[C@H](NS(=O)(=O)c2ccccc2N)C(=O)O)cc1` [Example 81, (2S)-3-(3-(4-amidinobenzoylamino)propanoylamino)-2-(2-amino)benzenesulfonylaminopropanoic Acid] it is 28 nM.

Take `N=C(N)c1ccc(OCCCC(=O)NC[C@H](NS(=O)(=O)c2ccccc2N)C(=O)O)cc1` [Example 84, (2S)-3-(4-(4-amidinophenoxy)butanoylamino)-2-(2-amino)benzenesulfonylaminopropanoic Acid]: half-maximal inhibition (IC50) was put at 22 nM. Still for that read-out and setting: the figure for `N=C(N)c1ccc(CCCCC(=O)NC[C@H](NS(=O)(=O)c2cccc3ccccc23)C(=O)O)cc1` [Example 88, (2S)-3-(5-(4-amidinophenyl)pentanoylamino)-2-(1-naphthalene)sulfonylaminopropanoic Acid] is 44 nM; for `CCc1ccc(S(=O)(=O)N[C@@H](CNC(=O)CCCCc2ccc(C(=N)N)cc2)C(=O)O)cc1` [Example 89, (2S)-3-(5-(4-amidinophenyl)pentanoylamino)-2-(4-ethyl)benzenesulfonylaminopropanoic Acid] it is 26 nM. Same read-out and setting: the figure for `N=C(N)c1ccc(CCCCC(=O)NC[C@H](NS(=O)(=O)c2ccccc2C(F)(F)F)C(=O)O)cc1` [Example 90, (2S)-3-(5-(4-amidinophenyl)pentanoylamino)-2-(2-trifluoromethyl)benzenesulfonylaminopropanoic Acid] is 15 nM. Molecule `N=C(N)c1ccc(C(=O)CCCCC(=O)NC[C@H](NS(=O)(=O)c2ccccc2)C(=O)O)cc1` [Example 94, (2S)-3-(5-(4-amidinobenzoyl)pentanoylamino)-2-benzenesulfonylaminopropanoic Acid] displayed an IC50 of 31 nM. Compared with the last molecule, the IC50 is about 2.1-fold higher. On the same count and under the same terms, the result for `CN(CCC(=O)NC[C@H](NS(=O)(=O)c1ccccc1)C(=O)O)C(=O)c1ccc(C(=N)N)cc1` [Example 96, (2S)-3-(3-(4-amidinobenzoylmethylamino)propanoylamino)-2-benzensulfonylaminopropanoic Acid] reads 57 nM; that for `CCc1ccc(S(=O)(=O)N[C@@H](CNC(=O)CCN(C)C(=O)c2ccc(C(=N)N)cc2)C(=O)O)cc1` [Example 97, (2S)-3-(3-(4-amidinobenzoylmethylamino)propanoylamino)-2-(4-ethyl)benzenesulfonylaminopropanoic Acid], 49 nM. In the case of `N=C(NN)c1ccc(C(=O)NCCC(=O)NC[C@H](NS(=O)(=O)c2ccccc2)C(=O)O)cc1` [Example 101, (2S)-2-benzenesulfonylamino-3-(3-(4-hydrazinoiminobenzoylamino)propanoylamino)propanoic Acid], the IC50 came to 103 nM. This IC50 lies about 2.1-fold higher than the previous one. As for `CC(=O)NNC(=N)c1ccc(C(=O)NCCC(=O)NC[C@H](NS(=O)(=O)c2ccccc2)C(=O)O)cc1` [Example 102, (2S)-2-benzenesulfonylamino-3-(3-(4-acetylhydrazinoiminobenzoylamino)propanoylamino)propanoic Acid], the IC50 is 35 nM. Against the preceding molecule, the IC50 is about 2.9-fold lower. The same measure, in the same setting: the figure for `CCCCNC(=N)c1ccc(C(=O)NCCC(=O)NC[C@H](NS(=O)(=O)c2ccccc2)C(=O)O)cc1` [Example 103, (2S)-2-benzenesulfonylamino-3-(3-(4-(N-n-butylamidino)benzoylamino)propanoylamino)propanoic Acid] is 25 nM; for `CCCCCCNC(=N)c1ccc(C(=O)NCCC(=O)NC[C@H](NS(=O)(=O)c2ccccc2)C(=O)O)cc1` [Example 104, (2S)-2-benzenesulfonylamino-3-(3-(4-(N-n-hexylamidino)benzoylamino)propanoylamino)propanoic Acid] it is 28 nM.

Molecule `N=C(NC1CCCCC1)c1ccc(C(=O)NCCC(=O)NC[C@H](NS(=O)(=O)c2ccccc2)C(=O)O)cc1` [Example 105, (2S)-2-benzenesulfonylamino-3-(3-(4-(N-cyclohexylamidino)benzoylamino)propanoylamino)propanoic Acid] returned a 50% inhibitory concentration (IC50) of 22 nM.

In turn, `N=C(NCc1ccccc1)c1ccc(C(=O)NCCC(=O)NC[C@H](NS(=O)(=O)c2ccccc2)C(=O)O)cc1` [Example 106, (2S)-2-benzenesulfonylamino-3-(3-(4-(N-benzylamidino)benzoylamino)propanoylamino)propanoic Acid] displayed a half-inhibitory concentration (IC50) of 116 nM. Against the preceding molecule, the IC50 is about 5.3-fold higher.

Values taken from US6048854A, “2,3-diaminopropionic acid derivative” (Sumitomo Pharmaceuticals Company, Limited, priority 1993, dated 2000).
